Where a SMILES comes first, the peptide text is derived from it. Where no end group is shown, it is not given here. [ ]: non-standard residue; d: D form. The star is where a group is joined. X1 = O=C(O)c1cc(NC(=S)*)ccc1-c1c2ccc(=O)cc-2oc2cc(O)ccc12; Ahx = NCCCCCC(=O)O
Key:
[1] = test system: HEK-Bcan cells; assay: Flow cytometry cell uptake, HEK-Bcan versus regular HEK cells; type: cell-based, human; details: Cy5.5-conjugated peptides, 5 μM
Experimental: (§1) Cells were washed once with PBS and then, treated with 1 mL of 2.5 mM EDTA to dissociate the cells. The EDTA was removed by centrifugation, and PBS supplemented with 10% FBS was added to create a single-cell suspension. All peptide stocks were dissolved in DMSO, and stored at −20° C. in the dark. Cells were incubated with each peptide (at the desired final concentration, between 1-10 μM) for 3 hrs at 37° C. in the dark under constant rotation. After incubation, cells were washed 3× with PBS with 10% FBS (by centrifugation at 7000 rpm for 3 mins each). Then, cells were resuspended in 3.7% formaldehyde for fixation, and finally washed once with PBS. Cells were evaluated for peptide uptake (mean fluorescence intensity) by flow cytometry (10,000-20,000 events).

[2] = test system: GBM-6 cells; assay: Flow cytometry cell uptake in GBM-6 cells; type: cell-based, human
Experimental: as §1

[3] = test system: intracranial GBM-6 tumor; assay: Intracranial GBM-6 tumor uptake analysis in nude mice; type: in vivo, mouse; details: i.v. tail vein, 100 μL of 500 μM
Experimental: For intracranial tumor implantation, animals were injected with 100,000 GBM-6 cells in the right frontal lobe of the mouse brain. Briefly, nude mice (6-8 weeks) were anaesthetized by i.p. injection with ketamine/xylazine/acepromazine mixed in 0.9% NaCl saline solution. Then, the mice heads were mounted onto a stereotactic frame, and sterilized by swabbing with iodine solution. An 8-10 mm sagittal incision was made with a scalpel, and the bregma of the skull was identified. A Hamilton syringe containing GBM-6 cells (in PBS; 3 μL volume) was inserted into the coronal suture of the skull at the following coordinates from the bregma: 2 mm right and 0.5 mm forward. The tip of the needle was lowered/implanted into the brain (3.5 mm distance). GBM-6 cells were injected slowly (0.1 μL per 10 seconds). After that, the needle was retracted, and the skin around the incision was sutured back together. Mice were allowed to recover after surgery (meloxicam were given as analgesia post-surgery). […] After 8 hrs, mice were sacrificed and their brains excised, cryosectioned, stained with Hoechst dye and imaged by fluorescence microscopy. […] The mean Cy5.5 fluorescence intensity of the tumor was performed on ImageJ and compared with the mean fluorescence intensity on the non-tumor area on the contralateral (left) side of the brain.

[4] = In vivo analysis of BBB permeability in non-tumor bearing mice; design: species or system mouse; details: i.v., 100 μL of 100 μM, 4 hrs
Experimental: To measure BBB penetration, naïve nude mice were injected intravenously via the tail vein with either Cy5.5-labeled BTP-7 or a scramble (Cy5.5-Scr-7) peptide (100 μL of 100 μM peptide solution). 4 hrs later, mice were injected with 100 μL of 50 mg/mL TRITC-dextran (155 kDa) via the tail vein. Mice were euthanized after 30 mins, and their brains excised, frozen and cryo-sectioned into 16 μm slices. Tissue sections from the frontal lobe were imaged by confocal microscopy using a 20× objective. Areas with high TRITC (red in original) signal indicate regions of high perfusion (i.e. blood vessels). Cy5.5 (peptide) intensity was measured in areas outside of visible TRITC signal to ensure that only peptide intensity in the brain parenchyma (peptide that has successfully extravasated from the vessels and accumulated in the brain tissues) was quantified.

[5] = healthy mice, 4 hours post-intravenous administration, IVIS
Experimental: The lyophilized BTP-7-Cy5.5 powders were dissolved to a final concentration of 10 mM in DMSO by mass. The peptide was then diluted to a concentration of 100 μM in a solution of 50:50 polyethylene glycol (PEG)-300:0.9% sodium chloride (v/v) irrigation solution. A 100 μL dose of each peptide solution was administered intravenously via the tail vein into healthy 8-week old female nude mice. After 4 hours, 100 μL of 50 mg/mL tetramethylrhodamine isothiocyanate-labeled dextran (155 kDa) in 0.9% sodium chloride was injected via the tail vein. Mice were sacrificed 30 min later by cervical dislocation. The brain, heart, lungs, kidneys, spleen, and liver were excised from each mouse, frozen on dry ice and imaged using an In Vivo Imaging System (Perkin Elmer) at an excitation of 640 nm. Using Living Image software, regions of interest were drawn around each organ and the total radiant efficiency of Cy5.5 from each organ was quantified.

[6] = target: T1, recombinant BΔg protein (deglycosylated brevican) (Homo sapiens, UniProt Q96GW7); assay: Octet steady state binding affinity to recombinant BΔg; details: KD of labeled versus unlabeled peptide
T1 construct: purchased R&D Systems 4009-BC-050
T1 sequence (Q96GW7 23-911): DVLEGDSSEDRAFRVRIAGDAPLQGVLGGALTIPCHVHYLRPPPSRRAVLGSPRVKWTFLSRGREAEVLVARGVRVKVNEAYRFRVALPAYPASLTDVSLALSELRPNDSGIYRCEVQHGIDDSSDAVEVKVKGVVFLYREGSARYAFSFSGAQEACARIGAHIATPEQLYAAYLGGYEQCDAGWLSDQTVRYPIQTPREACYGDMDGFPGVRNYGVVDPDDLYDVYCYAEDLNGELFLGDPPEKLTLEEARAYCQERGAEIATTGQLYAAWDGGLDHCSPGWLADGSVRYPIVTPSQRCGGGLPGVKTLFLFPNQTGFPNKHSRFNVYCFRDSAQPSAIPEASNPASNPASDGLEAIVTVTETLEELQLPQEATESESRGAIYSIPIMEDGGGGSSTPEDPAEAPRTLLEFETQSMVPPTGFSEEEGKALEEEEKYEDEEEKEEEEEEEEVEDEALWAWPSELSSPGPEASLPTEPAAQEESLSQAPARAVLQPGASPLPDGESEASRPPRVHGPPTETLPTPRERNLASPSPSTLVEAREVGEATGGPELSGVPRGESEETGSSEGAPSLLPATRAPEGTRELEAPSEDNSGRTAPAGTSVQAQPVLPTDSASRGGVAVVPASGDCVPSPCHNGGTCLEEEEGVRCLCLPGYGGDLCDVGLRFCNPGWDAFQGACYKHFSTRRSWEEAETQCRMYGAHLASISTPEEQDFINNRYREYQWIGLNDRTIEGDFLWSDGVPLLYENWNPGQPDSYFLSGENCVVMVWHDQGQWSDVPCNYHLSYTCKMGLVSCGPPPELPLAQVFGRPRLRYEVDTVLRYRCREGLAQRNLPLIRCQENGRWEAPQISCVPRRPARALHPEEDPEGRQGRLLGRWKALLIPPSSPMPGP
Experimental: A ForteBio OctetRed384 instrument was used to study the binding kinetics of each peptide to recombinant human brevican (re-suspended in PBS and 0.1 mM EDTA, pH 6.8). The brevican protein was deglycosylated prior to experimental use in water+0.05% tween, PI, sialidase, 0-glycosidase, N-glycosidase in sodium acetate [200 mM], NaCl [250 mM], Tris-HCl [200 mM], pH 7.5.) in the presence of protease inhibitor overnight at 4° C. (this entire composition will be referred to as ‘de-glycosylation buffer’). […] The final volume for all the solutions was 80 μl/well. Assays were performed at 30° C. in solid black 384-well plates (Geiger Bio-One). Prior to beginning, Ni-NTA biosensors were soaked for 10 min in working buffer. Before loading the protein onto each biosensor, a baseline was established in working buffer for 60 s. Deglycosylated brevican (50 μg/ml BΔg; His-tagged) was loaded on the surface of each biosensors for 180 s. […] Reference biosensors were also included in the plate as internal controls, where biosensors were exposed to the ‘de-glycosylation buffer’ lacking brevican protein during the loading step. A 60 s biosensor washing step was applied. Then, biosensors were exposed to the analyte (peptide) in working buffer (ranging between 0-10 μM BTP) for 300 s during the ‘association’ step. Finally, the biosensors were exposed to working buffer (without peptide) during the ‘dissociation’ step for 600 s. Binding affinity of each peptide was assessed through steady state analysis, where the response unit was plotted over peptide concentration. All data was plotted and curves were fitted using the non-linear ‘one-site specific binding’ fit, and the dissociation constant (KD) value was calculated using the GraphPad Prism software.
Binding kinetics analyses were performed using the Octet RED platform (Forte Bio) to measure the binding affinity of BTP-7, 8 and 9 to purified recombinant BΔg protein.

[7] = target: T2, glycosylated isoform of normal brevican (Bcan) (Homo sapiens, UniProt Q96GW7); assay: Octet steady state binding to fully glycosylated brevican (control); details: Octet steady state analysis
T2 construct: purchased R&D Systems 4009-BC-050
T2 sequence (Q96GW7 23-911): T1 sequence (Q96GW7 23-911)

[8] = test system: HEK-Bcan cells; assay: Flow cytometry blocking study with 50× molar excess of unlabeled peptide; type: cell-based, human; details: fluorescein-conjugated peptide 1 μM
Experimental: as §1
For blocking studies, cells were dissociated as described above and resuspended in cold PBS with 10% FBS. Cells were then incubated with a 50× molar excess of unlabeled peptide for 10 mins on ice, before adding the corresponding FITC-labeled peptide at a final concentration of 1 μM and incubated for 1.5 hrs on ice. Cells were then washed with cold PBS with 10% FBS, fixed and analyzed by flow cytometry.

[9] = test system: BT188 glioma stem cells; assay: Peptide uptake in BT188 (BΔg-high) versus BT145 (BΔg-low) glioma stem cells, fluorescence imaging; type: cell-based, human; details: fluorescein-labeled peptides, 5 μM
Text: FIGS. 3A-I. Peptide characterization for BΔg specificity in glioma stem cells. (a) Table summary listing the properties of 7 peptides (composed of 8 D-amino acid residues, SEQ ID NOs:3-9, in order of appearance) that were isolated from the OBOC library screen. MW=molecular weight; KD=Kyte-Doolittle scale for amino acid hydropathy (positive scores indicate […]) (Kyte and Doolittle, J. Mol. Biol. 157, 105-132 (1982)). (b) Chemical structure showing the linkage between the peptide and FITC. (c) Western blot analysis showing the level of BΔg and Bcan in human embryo kidney (HEK) cells, and Bcan-overexpressing HEK cells (HEK-Bcan). […] Each group was normalized to a no-blocking (vehicle) control. Statistics were performed using multiple t-tests, and significance was measured in comparison to each vehicle control (p<0.0001). (e) Uptake of fluorescein-labeled BTP-2, 7, 8, 9, and 10 (at 5 μM conc.) in BT188 (BΔg-high) or BT145 (BΔg-low) glioma stem cells (GSCs). Western blot analysis on the top right confirms the BΔg expression level. […] Statistics were performed using the two-way ANOVA and Tukey's Multiple Comparison test. (f) Chemical structure showing the linkage between the peptide and Cy5.5 dye. (g) Western blot analysis showing the expression of BΔg in GBM-6 cells, with negligible BΔg level in astrocytes or neural progenitor cells (NPC). (h) Graph showing the cell uptake ranking of the top 3 peptide candidates, BTP-7, 8 and 9 in GBM-6 cells as determined by flow cytometry analysis with s.d. error bars (5 μM conc.; nevents=20,000 cells; nexperiment=5). Each group is normalized to the control scramble peptide (Scr-8). Statistics were performed using the one-way ANOVA and Tukey's Multiple Comparison test (significance were measured in comparison to the Scr-8 control). (i) Bar graph showing the uptake of BTP-7, 8 and 9 in GBM-6 cells and NPC with 95% confidence interval error bars (1 μM conc.; nevents=20,000 cells). Statistics were performed using the two-way ANOVA and Sidak's Multiple Comparison test.

[10] = Solubility in aqueous solutions

CC(C)[C@@H](NC(=O)[C@@H](Cc1c[nH]cn1)NC(=O)CNC(=O)[C@@H](Cc1c[nH]c2ccccc12)NC(=O)[C@@H](CCCCN)NC(=O)[C@H](N)[C@H](C)O)C(=O)N[C@H](CC(N)=O)C(=O)N[C@H](CCCCN)C(=O)NCCCCCC(=O)N[C@@H](Cc1cn(CCCNC(=O)CCCCC[N+]2=C(/C=C/C=C/C=C3/N(C)c4ccc5ccccc5c4C3(C)C)C(C)(C)c3c2ccc2ccccc32)nn1)C(N)=O [BTP-7-Cy5.5]
uptake in HEK-Bcan cells compared with regular HEK cells [1]: significantly higher
uptake in GBM-6 GSCs compared with astrocytes ([2]; Cy5.5-conjugated peptides): significantly higher
uptake in GBM-6 cells at 4° C. compared to 37° C. ([2]; Cy5.5-conjugated peptides, 5 μM, inhibition of endocytosis): significantly reduced
cell uptake ranking in GBM-6 cells ([2]; Cy5.5-labeled, 5 μM, normalized to Scr-8): highest uptake
tumor uptake compared to the control Cy5.5 dye (without peptide) ([3]; brain cryo-sections, mean Cy5.5 intensity in tumor): more than 10 times
fluorescence intensity of tumor compared to the contralateral area ([3]; tumor-to-non-tumor ratio): 4 times
accumulation in the brain parenchyma outside of regions of high perfusion ([4]; healthy non-tumor bearing mice, confocal microscopy): accumulated within the brain parenchyma
level of extravasation across the BBB compared with Scr-7 ([4]; mean Cy5.5 intensity in parenchyma): higher that of Scr-7
fluorescence intensity in liver and kidneys [5]: highest fluorescence intensity
uptake in brain and heart compared to other organs [5]: relatively low uptake

CC(C)[C@@H](NC(=O)[C@@H](Cc1c[nH]cn1)NC(=O)CNC(=O)[C@@H](Cc1c[nH]c2ccccc12)NC(=O)[C@@H](CCCCN)NC(=O)[C@H](N)[C@H](C)O)C(=O)N[C@H](CC(N)=O)C(=O)N[C@H](CCCCN)C(=O)NCCCCCC(=O)N[C@@H](CCCCNC(=S)Nc1ccc(-c2c3ccc(=O)cc-3oc3cc(O)ccc23)c(C(=O)O)c1)C(N)=O [BTP-7 conjugated to a fluorescein dye] (H-[dT][dK][dW]G[dH][dV][dN][dK][Ahx]K(X1)-NH2)
binding affinity relative to the unlabeled BTP-7 (times less) [6]: more than 10 times
binding to the glycosylated isoform of normal brevican [7]: does not bind

BTP-2: BΔg-targeting peptide of 8 D-amino acid residues from OBOC screen; sequence only in FIG. 3A ([dW][dR][dK][dA][dF][dT]G[dY]; not fully specified)
uptake in HEK-Bcan cells in the presence of the blocking peptide [8]: reduced uptake
uptake in BT188 GSCs compared with BT145 GSCs [9]: greater uptake
solubility in aqueous solutions compared to the other peptides [10]: more insoluble in aqueous solutions
